{"source": "paper PMC2698029", "about": "(Journal of medicinal chemistry, 2009)", "key": {"[1]": {"test_system": "Plasmodium berghei, ANKA strain", "assay": "Single oral dose antimalarial efficacy in P. berghei-infected mice", "type": "in vivo, C57BL/6J male mice", "details": "single oral dose 144 mg/kg"}, "[2]": {"test_system": "WT-MEF Noncancerous mouse embryonic fibroblasts", "assay": "Cytotoxicity, SRB assay, WT-MEF noncancerous fibroblasts", "type": "cell-based", "details": "Fibroblast, 72 h, read-out: IC50 Values (μM)"}, "[3]": {"assay": "Thermal stability in the solid state", "type": "physicochemical", "details": "60 °C"}, "[4]": {"assay": "Hydrolytic stability in DMSO/water", "type": "physicochemical", "details": "room temperature, 80/20 DMSO/water at pH 7.4"}, "[5]": {"test_system": "Plasmodium berghei, ANKA strain", "details": "cited from earlier work; for Average survival time (not prolonged beyond day): single oral dose of 30 mg/kg, summary of Table 1"}, "[6]": {"details": "single oral dose of 30 mg/kg (printed in the 1 × 72 column)"}}, "note": "Where a name gives a salt, the structure may show the parent alone. Marks after values point to notes of the source that are not given here.", "data": [{"smiles": "C[C@H]1[C@@H](CC(C[C@H]2O[C@@H]3C[C@]4(C)CC[C@H]5[C@H](C)CC[C@@H]([C@H]2C)[C@@]35OO4)CS(=O)(=O)c2ccc(CO)cc2)O[C@@H]2C[C@]3(C)CC[C@H]4[C@H](C)CC[C@@H]1[C@@]24OO3", "note": "(some centres unmarked) [Dimer 4b, dimeric sulfone benzylic alcohol]", "values": [{"measurement": "Parasitemia at day 30", "setting": "[1]; 2 of the 5 mice, appeared sick", "result": "7–9%"}, {"measurement": "IC50", "setting": "[2]", "result": "> 50", "unit": "µM"}, {"measurement": "Time stable in the solid state", "setting": "[3]", "result": "≥ 24", "unit": "h"}, {"measurement": "Time stable in solution", "setting": "[4]", "result": "at least 12 hours"}]}, {"smiles": "C[C@H]1[C@@H](CC(C[C@H]2O[C@@H]3C[C@]4(C)CC[C@H]5[C@H](C)CC[C@@H]([C@H]2C)[C@@]35OO4)CS(=O)(=O)c2ccc(COC(=O)N(C)C)cc2)O[C@@H]2C[C@]3(C)CC[C@H]4[C@H](C)CC[C@@H]1[C@@]24OO3", "note": "[Dimer 4c, dimeric sulfone benzylic dimethyl carbamate]", "values": [{"measurement": "Adverse effects", "setting": "[1]; malaria-infected mice", "result": "no adverse effects"}, {"measurement": "IC50", "setting": "[2]", "result": "> 50", "unit": "µM"}, {"measurement": "Time stable in the solid state", "setting": "[3]", "result": "≥ 24", "unit": "h"}, {"measurement": "Stability in the solid state for one week", "setting": "[3]; one week", "result": "stable"}, {"measurement": "Time stable in solution", "setting": "[4]", "result": "at least 12 hours"}]}, {"smiles": "CC(C)(N)CNC(=O)C[C@H]1CC[C@]2(CC1)OO[C@]1(O2)C2CC3CC(C2)CC1C3", "note": "[Dimer 7, OZ277 maleate]", "values": [{"measurement": "% Suppression of Parasitemia (on day 3 post infection)", "setting": "[5]; [6]", "result": "99.95 ^b %"}, {"measurement": "Average Survival (days) After Infection", "setting": "[5]; [6]", "result": "10.7 ^b days"}, {"measurement": "Average survival time (not prolonged beyond day)", "setting": "[5]", "result": "≤ 11", "unit": "days"}]}, {"smiles": "C[C@H]1[C@H](OC(=O)CCC(=O)[O-])O[C@@H]2O[C@@]3(C)CC[C@H]4[C@H](C)CC[C@@H]1[C@@]24OO3.[Na+]", "note": "[Dimer 1c, sodium artesunate]", "values": [{"measurement": "Average Survival (days) After Infection", "setting": "[5]; [6]", "result": "7.6 ^b days"}, {"measurement": "Average survival time (not prolonged beyond day)", "setting": "[5]", "result": "≤ 11", "unit": "days"}]}]}
